According to US20100273772A1, “Bisaryl Alkynylamides as Negative Allosteric Modulators of Metabotropic Glutamate Receptor 5 (MGLUR5)” (Wyeth LLC, priority 2009, published 2010):
pIC50, pKi: −log10 of the molar value.

Columns and labels:
rat mGluR5 receptor = target: T1, rat mGluR5 receptor (Rattus norvegicus, UniProt P31424); assay: [3H]-MPEP binding HEK-293 cell membranes expressing a rat mGluR5 receptor; settings: displacement of 4 nM [3H]-MPEP, HEK-293 cell membranes expressing rat mGluR5, 60 minute at room temperature; read-out: mGluR5 Ligand Binding DR Ki
T1 construct: expressed in transfected cells; host or cells: HEK-293
In short: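 Membranes from HEK-293 cells expressing rat mGluR5 incubated 60 min at room temperature in 50 mM Tris pH 7.5 with 4 nM [3H]-MPEP; 10 μM MPEP defines non-specific binding; filtration read-out. Single-point % inhibition at 10 μM, then Ki from IC50 via Cheng-Prusoff for actives.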

[1] = target: T2, metabotropic glutamate receptor 5 (Rattus norvegicus, UniProt P31424); assay: FLIPR Calcium 3 fluorescence-based functional assay of intracellular calcium, mGluR5 antagonist activity; format: cell-based; settings: inhibition of glutamate (EC90, ~50 uM) stimulated calcium levels, mGluR5 HEK-293 cells; read-out: mGluR5 FLIPR MP Antagonist DR IC50
T2 construct: expressed in transfected cells; host or cells: HEK-293
In short: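 mGluR5 HEK-293 cells (50,000/well, plated overnight) are loaded with FLIPR Calcium 3 dye for 1 h at 37 °C. Compound is added and fluorescence recorded on FLIPR. Inhibition of the glutamate-stimulated calcium signal is given as %, with IC50 from a 4-parameter logistic fit.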

T1 sequence (P31424 21-1203): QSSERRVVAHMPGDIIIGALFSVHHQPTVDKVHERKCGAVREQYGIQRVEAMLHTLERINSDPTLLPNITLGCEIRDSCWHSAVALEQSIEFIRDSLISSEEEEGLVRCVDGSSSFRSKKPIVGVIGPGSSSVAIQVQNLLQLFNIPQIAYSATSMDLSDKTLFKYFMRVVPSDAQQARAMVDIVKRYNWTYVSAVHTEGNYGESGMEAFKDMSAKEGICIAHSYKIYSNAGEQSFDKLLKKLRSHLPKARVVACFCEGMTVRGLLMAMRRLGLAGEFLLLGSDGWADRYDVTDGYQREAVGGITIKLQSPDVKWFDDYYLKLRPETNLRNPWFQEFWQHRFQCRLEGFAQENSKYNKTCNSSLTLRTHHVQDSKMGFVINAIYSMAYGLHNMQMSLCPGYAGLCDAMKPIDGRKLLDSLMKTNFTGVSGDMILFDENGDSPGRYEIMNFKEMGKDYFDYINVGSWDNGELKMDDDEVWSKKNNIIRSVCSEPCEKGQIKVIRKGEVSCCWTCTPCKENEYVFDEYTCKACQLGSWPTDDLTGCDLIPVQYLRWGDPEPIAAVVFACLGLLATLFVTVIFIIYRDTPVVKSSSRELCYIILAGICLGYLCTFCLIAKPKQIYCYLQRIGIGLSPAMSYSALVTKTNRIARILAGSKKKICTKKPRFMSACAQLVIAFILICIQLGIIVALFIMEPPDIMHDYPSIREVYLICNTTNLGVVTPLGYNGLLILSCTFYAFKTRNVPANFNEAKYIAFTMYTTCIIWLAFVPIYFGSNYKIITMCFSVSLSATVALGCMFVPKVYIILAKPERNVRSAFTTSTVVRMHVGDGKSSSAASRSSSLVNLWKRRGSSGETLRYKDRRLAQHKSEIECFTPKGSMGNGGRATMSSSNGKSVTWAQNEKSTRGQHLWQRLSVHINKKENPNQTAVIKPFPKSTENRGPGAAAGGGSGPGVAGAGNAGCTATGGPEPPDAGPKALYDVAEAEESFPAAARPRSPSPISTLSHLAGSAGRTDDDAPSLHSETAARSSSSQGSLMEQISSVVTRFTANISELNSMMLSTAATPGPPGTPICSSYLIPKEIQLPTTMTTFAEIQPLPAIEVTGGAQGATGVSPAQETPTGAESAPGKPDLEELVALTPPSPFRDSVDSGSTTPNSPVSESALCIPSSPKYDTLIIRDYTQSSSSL
T2 sequence (P31424 21-1203): as above

Row | SMILES | pKi (rat mGluR5 receptor) | pIC50 [1]
1 | Cc1ccc(C(=O)N2CCc3ncccc3C2)cc1C#Cc1ccccn1 [Example 85, 6-{[4-Methyl-3-(pyridin-2-ylethynyl)phenyl]carbonyl}-5,6,7,8-tetrahydro-1,6-naphthyridine] | 8.40 | 8.22
2 | Cc1ccc(C(=O)N2CCc3cccnc3C2)cc1C#Cc1ccccn1 [Example 86, 7-{[4-Methyl-3-(pyridin-2-ylethynyl)phenyl]carbonyl}-5,6,7,8-tetrahydro-1,7-naphthyridine] | 7.96 | 8.10
3 | Cc1ccc(C(=O)N2CCc3nc[nH]c3C2)cc1C#Cc1ccccn1 [Example 87, 5-{[4-methyl-3-(pyridin-2-ylethynyl)phenyl]carbonyl}-4,5,6,7-tetrahydro-3H-imidazo[4,5-c]pyridine] | 7.85 | 8.70
4 | Cc1ccc(C(=O)N2CCc3[nH]ncc3C2)cc1C#Cc1ccccn1 [Example 88, 5-{[4-methyl-3-(pyridin-2-ylethynyl)phenyl]carbonyl}-4,5,6,7-tetrahydro-1H-pyrazolo[4,3-c]pyridine] | 8.22 | 8.40
5 | Cc1nc2c(s1)CN(C(=O)c1ccc(C)c(C#Cc3ccccn3)c1)CC2 [Example 89, 2-methyl-5-{[4-methyl-3-(pyridin-2-ylethynyl)phenyl]carbonyl}-4,5,6,7-tetrahydro[1,3]thiazolo[5,4-c]pyridine] | 8.40 | 8.40
6 | Cc1nc2c(o1)CCN(C(=O)c1ccc(C)c(C#Cc3ccccn3)c1)C2 [Example 90, 2-methyl-5-{[4-methyl-3-(pyridin-2-ylethynyl)phenyl]carbonyl}-4,5,6,7-tetrahydro[1,3]oxazolo[4,5-c]pyridine] | 7.80 | 8.05
7 | Cc1ccc(C(=O)N2Cc3cccnc3C2)cc1C#Cc1ccccn1 [Example 91, 6-{[4-methyl-3-(pyridin-2-ylethynyl)phenyl]carbonyl}-6,7-dihydro-5H-pyrrolo[3,4-b]pyridine] | 8.22 | 8.40
8 | O=C(c1ccc(C(F)(F)F)c(C#Cc2ccccn2)c1)N1Cc2cccnc2C1 [Example 92, 6-{[3-(Pyridin-2-ylethynyl)-4-(trifluoromethyl)phenyl]carbonyl}-6,7-dihydro-5H-pyrrolo[3,4-b]pyridine] | 8.52 | 8.15
9 | O=C(c1ccc(C(F)(F)F)c(C#Cc2ccccn2)c1)N1CCc2ccccc2C1 [Example 93, 2-{[3-(Pyridin-2-ylethynyl)-4-(trifluoromethyl)phenyl]carbonyl}-1,2,3,4-tetrahydroisoquinoline] | 8.70 | 7.38
10 | O=C(c1ccc(C(F)(F)F)c(C#Cc2ccccn2)c1)N1CCc2ccc(Cl)cc2C1 [Example 94, 7-Chloro-2-{[3-(pyridin-2-ylethynyl)-4-(trifluoromethyl)phenyl]carbonyl}-1,2,3,4-tetrahydroisoquinoline] | 8.70 | 6.82
11 | O=C(c1ccc(C(F)(F)F)c(C#Cc2ccccn2)c1)N1CCc2c(Cl)cccc2C1 [Example 95, 5-Chloro-2-{[3-(pyridin-2-ylethynyl)-4-(trifluoromethyl)phenyl]carbonyl}-1,2,3,4-tetrahydroisoquinoline] | 8.40 | 6.79
12 | O=C(c1ccc(C(F)(F)F)c(C#Cc2ccccn2)c1)N1Cc2ccccc2C1 [Example 96, 2-{[3-(Pyridin-2-ylethynyl)-4-(trifluoromethyl)phenyl]carbonyl}-2,3-dihydro-1H-isoindole] | 8.30 | 7.16
13 | O=C(c1ccc(C(F)(F)F)c(C#Cc2ccccn2)c1)N1CCc2ncc(Br)cc2C1 [Example 97, 3-Bromo-6-{[3-(pyridin-2-ylethynyl)-4-(trifluoromethyl)phenyl]carbonyl}-5,6,7,8-tetrahydro-1,6-naphthyridine] | 9.00 | 7.89
14 | O=C(c1ccc(C(F)(F)F)c(C#Cc2ccccn2)c1)N1CCc2ncccc2C1 [Example 98, 6-{[3-(Pyridin-2-ylethynyl)-4-(trifluoromethyl)phenyl]carbonyl}-5,6,7,8-tetrahydro-1,6-naphthyridine] | 8.40 | 8.15
15 | O=C(c1ccc(C(F)(F)F)c(C#Cc2ccccn2)c1)N1CCc2[nH]ncc2C1 [Example 100, 5-{[3-(Pyridin-2-ylethynyl)-4-(trifluoromethyl)phenyl]carbonyl}-4,5,6,7-tetrahydro-1H-pyrazolo[4,3-c]pyridine] | 8.40 | 8.30
16 | O=C(c1ccc(C(F)(F)F)c(C#Cc2ccccn2)c1)N1CCc2[nH]cnc2C1 [Example 101, 5-{[3-(Pyridin-2-ylethynyl)-4-(trifluoromethyl)phenyl]carbonyl}-4,5,6,7-tetrahydro-1H-imidazo[4,5-c]pyridine] | 7.44 | 7.74
